For 53 molecules, IC50 results are on record in patent US20230390274A1 (EPIRIUM BIO INC., priority 2020, published 2023).

This assay addresses 15-PGDH/HPGD (Homo sapiens (Human), UniProt P15428). Briefly: hPGDH inhibitor screening biochemical assay. The settings on record: 10 nM 15-PGDH/HPGD, 15 μM PGE2, 0.25 mM NAD; read-out: hPGDH: Average IC50. On the procedure: A hydroxyprostaglandin dehydrogenase inhibition screening biochemical assay can be performed to assess the synthesized inhibitors provided herein. Provided herein is an exemplary biochemical assay for hPGDH inhibitor screening.
The in vitro biochemical assay can be performed in white, 384 plates in total 20 μl reaction volume consisting of 10 nM of 15-PGDH/HPGD (R&D System #5660-DH), 15 μM Prostaglandin E2 (Sigma, Cat #P5640-10MG) and 0.25 mM β-Nicotinamide adenine dinucleotide sodium salt (Sigma, Cat #N0632-5G) made in reaction buffer (50 mM Tris-HCl, pH 7.5, 0.01% Tween 20) at 10-point dose response curve for test/tool compounds. Briefly, 5 μl (4×) of compounds solution and 5 μl (final concentration, 10 nM) of enzyme solution is added to white 384 well plates and incubated for 10 mins at 37° C. 5 μl (4×) of Prostaglandin E2 and 5 μl (4×) of β-Nicotinamide adenine dinucleotide sodium salt is added to the wells and incubated for 10 mins at rt. Fluorescence is recorded at ex/em=340 nm/485 nm. The percentage (%) inhibition of enzyme activity was determined relative to […] (1% DMSO) and IC50 was calculated using GraphPad prism software (four parameter-variable slope equation).

Each structure is given as a SMILES string. Where only a bound is given, the exact number is not on record here.

Chain of 15-PGDH/HPGD (P15428 whole entry): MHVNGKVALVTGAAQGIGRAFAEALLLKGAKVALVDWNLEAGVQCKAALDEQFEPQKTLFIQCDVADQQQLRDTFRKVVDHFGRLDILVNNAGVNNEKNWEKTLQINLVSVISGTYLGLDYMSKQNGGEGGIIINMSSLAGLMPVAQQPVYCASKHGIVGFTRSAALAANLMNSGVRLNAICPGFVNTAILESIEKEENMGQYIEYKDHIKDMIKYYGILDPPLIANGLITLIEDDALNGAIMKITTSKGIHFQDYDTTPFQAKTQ

The IC50 is the concentration that gives 50% inhibition. For `COc1ccc(-n2cc(Cl)c3cc(C(=O)N4CCC(F)CC4)cnc32)cc1` [A-165, (3-chloro-1-(4-methoxyphenyl)-1H-pyrrolo[2,3-b]pyridin-5-yl)(4-fluoropiperidin-1-yl)methanone], the IC50 is < 100 nM.

Turning to `COc1ccc(-n2cc(Cl)c3cc(C(=O)N4CCCCC4)cnc32)cc1` [A-166], the IC50 is < 100 nM.

Turning to `O=C(c1cnc2c(c1)c(Cl)cn2-c1ccc2c(c1)OC(F)(F)O2)N1CCC(F)CC1` [A-167], the IC50 was < 100 nM.

Turning to `O=C(c1cnc2c(c1)c(Cl)cn2-c1ccc2c(c1)OC(F)(F)O2)N1CCCCC1` [A-168], the IC50 is < 100 nM.

Consider `COc1cccc(-n2cc(Cl)c3cc(C(=O)N4CCCCC4)cnc32)c1` [A-169], for which the IC50 is < 100 nM.

Turning to `O=C(c1cnc2c(c1)c(Cl)cn2-c1cncc(Cl)c1)N1CCCCC1` [A-170], the IC50 is < 100 nM.

Consider `COc1cncc(-n2cc(Cl)c3cc(C(=O)N4CCCCC4)cnc32)c1` [A-171], for which the IC50 is < 100 nM.

For the molecule `O=C(c1cnc2c(ccn2-c2cnccn2)c1Cl)N1CCC(F)CC1` [A-172], the IC50 was < 100 nM.

`O=C(c1cnc2c(c(Cl)cn2-c2cnccn2)c1Cl)N1CCC(F)CC1` [A-173]: the IC50 was < 100 nM.

As to `Cc1nc2c(ccn2-c2cnccn2)cc1C(=O)N1CCC(F)CC1` [A-174], the IC50 was ≥ 1000 nM.

Turning to `Cc1nc2c(cc1C(=O)N1CCC(F)CC1)c(Cl)cn2-c1cnccn1` [A-175], the IC50 was ≥ 1000 nM.

Regarding `CCC(CC)n1cnc2cc(C(=O)N3CCC(F)CC3)cnc21` [A-176], the IC50 is ≥ 1000 nM.

On to `O=C(c1cnc2c(c1)ncn2-c1ccc(F)cc1)N1CCCCC1` [A-178], for which the IC50 is < 100 nM.

As to `O=C(c1cnc2c(c1)ncn2-c1ccc(F)c(F)c1)N1CCCCC1` [A-180], the IC50 is < 100 nM.

For the molecule `O=C(c1cnc2c(c1)ncn2-c1ccc(OC(F)(F)F)cc1)N1CCCCC1` [A-182], the IC50 is < 100 nM.

As for `CCOc1ccc(-n2cnc3cc(C(=O)N4CCCCC4)cnc32)cc1` [A-186], the IC50 is < 100 nM.

Regarding `N#Cc1ccc(-n2cnc3cc(C(=O)N4CCC(F)(F)CC4)cnc32)cc1` [A-193], the IC50 is < 100 nM.

Take `N#Cc1ccc(-n2cnc3cc(C(=O)N4CC(Cl)C4)cnc32)cc1` [A-194]: the IC50 is < 100 nM.

For the molecule `NC(=O)c1ccc(-n2cnc3cc(C(=O)N4CCC(F)(F)CC4)cnc32)cc1` [A-195], the IC50 was < 100 nM.

For the molecule `COc1ccc(-n2c(C)nc3cc(C(=O)N4CCCCC4)cnc32)cc1` [A-197], the IC50 is < 100 nM.

For the molecule `COc1ccc(-n2c(CCNC(C)=O)nc3cc(C(=O)N4CCC(F)CC4)cnc32)cc1` [A-198], the IC50 is ≥ 1000 nM.

Take `Cc1c(C(=O)N2CCC(F)CC2)cnc2c1ccn2-c1ccc(C(N)=O)cc1` [A-202, 4-(5-(4-fluoropiperidine-1-carbonyl)-4-methyl-1H-pyrrolo[2,3-b]pyridin-1-yl)benzamide]: the IC50 is < 100 nM.

For `NC(=O)c1ccc(-n2cc(Cl)c3cc(C(=O)N4CCC(F)CC4)cnc32)cc1` [A-203, 4-(3-chloro-5-(4-fluoropiperidine-1-carbonyl)-1H-pyrrolo[2,3-b]pyridin-1-yl)benzamide], the IC50 is < 100 nM.

For `NC(=O)c1ccc(-n2cc(Cl)c3cc(C(=O)N4CCCCC4)cnc32)cc1` [A-204, 4-(3-chloro-5-(piperidine-1-carbonyl)-1H-pyrrolo[2,3-b]pyridin-1-yl)benzamide], the IC50 is < 100 nM.

In the case of `Cc1c(C(=O)N2CCC(F)CC2)cnc2c1ccn2-c1ccc(C#N)cc1` [A-206, 4-(5-(4-fluoropiperidine-1-carbonyl)-4-methyl-1H-pyrrolo[2,3-b]pyridin-1-yl)benzonitrile], the IC50 is < 100 nM.

As to `N#Cc1ccc(-n2cc(Cl)c3cc(C(=O)N4CCC(F)CC4)cnc32)cc1` [A-207], the IC50 is < 100 nM.

In the case of `Cc1cc(-n2ccc3cc(C(=O)N4CCCCC4)cnc32)cnc1N` [A-208], the IC50 is < 100 nM.

`Nc1ncc(-n2ccc3cc(C(=O)N4CCCCC4)cnc32)cc1Cl` [A-209]: the IC50 is < 100 nM.

Turning to `C[C@@H]1C[C@H](C)CN(C(=O)c2cnc3c(ccn3-c3ccc(C(N)=O)cc3)c2)C1` [A-210, 4-(5-((3R,5S)-3,5-dimethylpiperidine-1-carbonyl)-1H-pyrrolo[2,3-b]pyridin-1-yl)benzamide], the IC50 is < 100 nM.

On to `O=C(c1cnc2c(ccn2-c2ccc3[nH]ncc3c2)c1)N1CCC(F)(F)CC1` [A-211], for which the IC50 is < 100 nM.

Consider `N/C(=N\O)c1ccc(-n2ccc3cc(C(=O)N4CCCCC4)cnc32)cc1` [A-212], for which the IC50 was < 100 nM.

`N/C(=N\O)c1cccc(-n2ccc3cc(C(=O)N4CCCCC4)cnc32)c1` [A-213]: the IC50 is < 100 nM.

As to `Cc1nc(-c2cccc(-n3ccc4cc(C(=O)N5CCCCC5)cnc43)c2)no1` [A-214], the IC50 is < 100 nM.

`CC(C)(C)C(=O)NCCNC(=O)c1ccc(-n2ccc3cc(C(=O)N4CCC(F)(F)CC4)cnc32)cc1` [A-215, 4-(5-(4,4-difluoropiperidine-1-carbonyl)-1H-pyrrolo[2,3-b]pyridin-1-yl)-N-(2-pivalamidoethyl)benzamide]: the IC50 was < 100 nM.

For `CC(C)NC(=O)c1ccc(-n2ccc3cc(C(=O)N4CCC(F)(F)CC4)cnc32)cc1` [A-216], the IC50 was < 100 nM.

Consider `CC(C)(C)CNC(=O)c1cncc(-n2ccc3cc(C(=O)N4CCC(F)(F)CC4)cnc32)c1` [A-217, 5-(5-(4,4-difluoropiperidine-1-carbonyl)-1H-pyrrolo[2,3-b]pyridin-1-yl)-N-neopentylnicotinamide], for which the IC50 is < 100 nM.

For the molecule `CC(C)(C)NC(=O)c1ccc(-n2ccc3cc(C(=O)N4CCC(F)(F)CC4)cnc32)cn1` [A-218, N-(tert-butyl)-5-(5-(4,4-difluoropiperidine-1-carbonyl)-1H-pyrrolo[2,3-b]pyridin-1-yl)picolinamide], the IC50 is < 100 nM.

For the molecule `CCC(CC)NC(=O)c1cncc(-n2ccc3cc(C(=O)N4CCC(F)(F)CC4)cnc32)c1` [A-219, 5-(5-(4,4-difluoropiperidine-1-carbonyl)-1H-pyrrolo[2,3-b]pyridin-1-yl)-N-(pentan-3-yl)nicotinamide], the IC50 is < 100 nM.

With `CS(=O)(=O)NCCNC(=O)c1ccc(-n2ccc3cc(C(=O)N4CCC(F)(F)CC4)cnc32)cc1` [A-220, 4-(5-(4,4-difluoropiperidine-1-carbonyl)-1H-pyrrolo[2,3-b]pyridin-1-yl)-N-(2-(methylsulfonamido)ethyl)benzamide], the IC50 is < 100 nM.

Turning to `NCCNC(=O)c1ccc(-n2ccc3cc(C(=O)N4CCC(F)(F)CC4)cnc32)cc1` [A-221, N-(2-aminoethyl)-4-(5-(4,4-difluoropiperidine-1-carbonyl)-1H-pyrrolo[2,3-b]pyridin-1-yl)benzamide], the IC50 is < 100 nM.

Turning to `O=C(NC(CO)CO)c1ccc(-n2ccc3cc(C(=O)N4CCC(F)(F)CC4)cnc32)cc1` [A-222], the IC50 was < 100 nM.

Consider `O=C(NCCO)c1ccc(-n2ccc3cc(C(=O)N4CCC(F)(F)CC4)cnc32)cc1` [A-223], for which the IC50 is < 100 nM.

Take `N#Cc1ccc(-n2ccc3cc(C(=O)N4C[C@H](F)C[C@H](F)C4)cnc32)cc1` [A-224, 4-(5-((3R,5S)-3,5-difluoropiperidine-1-carbonyl)-1H-pyrrolo[2,3-b]pyridin-1-yl)benzonitrile]: the IC50 was < 100 nM.

For `CCNC(=O)c1ccc(-n2ccc3cc(C(=O)N4CCC(F)(F)CC4)cnc32)cc1` [A-225], the IC50 was < 100 nM.

For `O=C(NC1CCNCC1)c1ccc(-n2ccc3cc(C(=O)N4CCC(F)(F)CC4)cnc32)cc1` [A-226], the IC50 is < 100 nM.

Regarding `O=C(NC1CNC1)c1ccc(-n2ccc3cc(C(=O)N4CCC(F)(F)CC4)cnc32)cc1` [A-227], the IC50 is < 100 nM.

Consider `O=C(O)Cc1ccc(-n2ccc3cc(C(=O)N4CCC(F)(F)CC4)cnc32)cc1` [A-230, 2-(4-(5-(4,4-difluoropiperidine-1-carbonyl)-1H-pyrrolo[2,3-b]pyridin-1-yl)phenyl)acetic acid], for which the IC50 is < 100 nM.

On to `CS(=O)(=O)NC(=O)c1ccc(-n2ccc3cc(C(=O)N4CCC(F)(F)CC4)cnc32)cc1` [A-232, 4-(5-(4,4-difluoropiperidine-1-carbonyl)-1H-pyrrolo[2,3-b]pyridin-1-yl)-N-(methylsulfonyl)benzamide], for which the IC50 is < 100 nM.

Take `O=C(NC1(C(=O)O)CC1)c1ccc(-n2ccc3cc(C(=O)N4CCC(F)(F)CC4)cnc32)cc1` [A-233]: the IC50 is < 100 nM.

Consider `O=C(NC1(C(=O)O)CC1)c1ccc(-n2ccc3cc(C(=O)N4CCC(F)(F)CC4)cnc32)cn1` [A-234, 1-(5-(5-(4,4-difluoropiperidine-1-carbonyl)-1H-pyrrolo[2,3-b]pyridin-1-yl)picolinamido)cyclopropane-1-carboxylic acid], for which the IC50 is < 100 nM.

Regarding `CC(C)(CC(=O)O)NC(=O)c1ccc(-n2ccc3cc(C(=O)N4CCC(F)(F)CC4)cnc32)cc1` [A-235], the IC50 is < 100 nM.

With `O=C(O)[C@@H]1CCCN1C(=O)c1ccc(-n2ccc3cc(C(=O)N4CCC(F)(F)CC4)cnc32)cc1` [A-236], the IC50 was < 100 nM.

Turning to `CCC(CC)NC(=O)c1ccc(-n2ccc3cc(C(=O)N4CCC(F)(F)CC4)cnc32)cn1` [A-239, 5-(5-(4,4-difluoropiperidine-1-carbonyl)-1H-pyrrolo[2,3-b]pyridin-1-yl)-N-(pentan-3-yl) picolinamide], the IC50 is < 100 nM.
